According to ChEMBL document CHEMBL1201862, “PubChem BioAssay data set” (2004):
Calls of active or inactive are those of the source.

Tests used:
[1] = non-specific 3'UTR reporter inhibition in Clone20-Shn3RL – cell-based, Renilla luciferase, cherry-picked, counter-screen for Shn3 inhibitor project, dose response (AID 624133); assay type: functional
[2] = reduction of Shn3 3'UTR-driven luciferase in osteoblasts – cell-based, Clone20 osteoblasts, firefly luciferase, cherry-picked, dose response (AID 624132); assay type: functional;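 note: firefly luciferase luminescence from reporter carrying the Shn3 3'UTR in osteoblasts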
[3] = loss of viability in HepG2 cells – cell-based, CellTiter-Glo, cherry-picked, cytotoxicity control for Shn3 inhibitor project, dose response (AID 624134); assay type: functional
P388 = experiment: cells; assay type: functional; details: Mus musculus
P388/ADR = experiment: cells; assay type: functional; details: Mus musculus
SN12K1 = experiment: cells; assay type: functional; details: Homo sapiens
Leucine aminopeptidase = target: T1, Leucine aminopeptidase (Plasmodium falciparum 3D7, UniProt Q8IL11); experiment: P. falciparum M17LAP inhibitors, primary screen, biochemical, fluorogenic H-Leu-NHMec substrate, 1536-well (AID 1619); assay type: functional
T1 sequence (Q8IL11 whole entry): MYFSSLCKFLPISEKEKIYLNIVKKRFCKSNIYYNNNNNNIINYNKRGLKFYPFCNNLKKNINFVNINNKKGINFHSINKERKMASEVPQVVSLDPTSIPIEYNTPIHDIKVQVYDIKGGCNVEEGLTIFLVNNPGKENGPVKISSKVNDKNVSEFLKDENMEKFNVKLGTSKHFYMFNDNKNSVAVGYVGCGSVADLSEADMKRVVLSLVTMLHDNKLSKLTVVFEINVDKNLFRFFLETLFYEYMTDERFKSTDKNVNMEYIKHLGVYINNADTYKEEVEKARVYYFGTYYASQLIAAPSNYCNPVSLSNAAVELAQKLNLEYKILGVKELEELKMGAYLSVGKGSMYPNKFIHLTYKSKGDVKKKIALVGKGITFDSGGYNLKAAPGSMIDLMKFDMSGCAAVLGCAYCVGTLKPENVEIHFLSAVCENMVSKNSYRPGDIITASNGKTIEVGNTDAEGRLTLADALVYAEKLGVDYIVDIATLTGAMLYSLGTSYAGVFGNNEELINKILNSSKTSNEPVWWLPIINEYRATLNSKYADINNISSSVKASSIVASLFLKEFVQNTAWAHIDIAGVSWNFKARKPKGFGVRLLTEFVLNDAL

[4] = growth inhibition of yeast DHODH-expressing 3D7 parasites – SYBR Green, dry powder samples, dose response (AID 1159570); assay type: functional, cell-based;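 note: parasite growth measured after 72 hours of compound exposure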
[5] = Dd2 malaria parasite growth inhibition potency – SYBR Green, dry powder samples, dose response (AID 1159566); assay type: functional, cell-based;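 note: potency for growth inhibition with lower SYBR green DNA signal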
[6] = P. falciparum Dd2 growth inhibitors, dose response, SYBR Green, cherry-picked samples (AID 1159567); assay type: functional, cell-based
[7] = growth inhibition of PfATP4-mutant resistant parasites – NITD609-resistant line, SYBR Green, dry powder, dose response (AID 1159571); assay type: functional, cell-based;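 note: parasites synchronized at ring stage by sorbitol before testing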
[8] = target: T2, Heat shock factor protein 1 (Mus musculus, UniProt P38532); experiment: decrease of HSF1-responsive luciferase luminescence – cell-based, NIH3T3, dose retest, confirmation (AID 2382); assay type: functional;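 note: NIH3T3 fibroblasts with HSF1-driven luciferase reporter stressed by proteasome inhibitor MG132; luminescence from HSF1-driven luciferase expression after 8 hours of MG132 stress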
T2 sequence (P38532 whole entry): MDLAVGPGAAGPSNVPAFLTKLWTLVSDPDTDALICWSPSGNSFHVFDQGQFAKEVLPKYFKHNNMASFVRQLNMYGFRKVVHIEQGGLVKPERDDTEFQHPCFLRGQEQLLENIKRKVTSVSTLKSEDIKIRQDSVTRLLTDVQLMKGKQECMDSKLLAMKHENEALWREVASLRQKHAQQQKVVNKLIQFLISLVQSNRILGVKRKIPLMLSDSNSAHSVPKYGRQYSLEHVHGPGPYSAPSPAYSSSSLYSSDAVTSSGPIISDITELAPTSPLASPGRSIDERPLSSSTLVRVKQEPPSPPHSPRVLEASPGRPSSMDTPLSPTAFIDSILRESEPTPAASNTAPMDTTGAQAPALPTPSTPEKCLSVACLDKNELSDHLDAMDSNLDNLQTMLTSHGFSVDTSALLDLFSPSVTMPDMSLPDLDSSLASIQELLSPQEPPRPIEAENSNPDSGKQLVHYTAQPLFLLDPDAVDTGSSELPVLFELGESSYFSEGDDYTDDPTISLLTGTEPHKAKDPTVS

[9] = target: T3, Short transient receptor potential channel 4 (Mus musculus, UniProt Q9QUQ5); experiment: calcium entry via TRPC4 opening agents – cell-based, HEK293 TRPC4/mu-opioid, Fluo-4 calcium, dose response (AID 434937); assay type: functional
T3 sequence (Q9QUQ5 whole entry): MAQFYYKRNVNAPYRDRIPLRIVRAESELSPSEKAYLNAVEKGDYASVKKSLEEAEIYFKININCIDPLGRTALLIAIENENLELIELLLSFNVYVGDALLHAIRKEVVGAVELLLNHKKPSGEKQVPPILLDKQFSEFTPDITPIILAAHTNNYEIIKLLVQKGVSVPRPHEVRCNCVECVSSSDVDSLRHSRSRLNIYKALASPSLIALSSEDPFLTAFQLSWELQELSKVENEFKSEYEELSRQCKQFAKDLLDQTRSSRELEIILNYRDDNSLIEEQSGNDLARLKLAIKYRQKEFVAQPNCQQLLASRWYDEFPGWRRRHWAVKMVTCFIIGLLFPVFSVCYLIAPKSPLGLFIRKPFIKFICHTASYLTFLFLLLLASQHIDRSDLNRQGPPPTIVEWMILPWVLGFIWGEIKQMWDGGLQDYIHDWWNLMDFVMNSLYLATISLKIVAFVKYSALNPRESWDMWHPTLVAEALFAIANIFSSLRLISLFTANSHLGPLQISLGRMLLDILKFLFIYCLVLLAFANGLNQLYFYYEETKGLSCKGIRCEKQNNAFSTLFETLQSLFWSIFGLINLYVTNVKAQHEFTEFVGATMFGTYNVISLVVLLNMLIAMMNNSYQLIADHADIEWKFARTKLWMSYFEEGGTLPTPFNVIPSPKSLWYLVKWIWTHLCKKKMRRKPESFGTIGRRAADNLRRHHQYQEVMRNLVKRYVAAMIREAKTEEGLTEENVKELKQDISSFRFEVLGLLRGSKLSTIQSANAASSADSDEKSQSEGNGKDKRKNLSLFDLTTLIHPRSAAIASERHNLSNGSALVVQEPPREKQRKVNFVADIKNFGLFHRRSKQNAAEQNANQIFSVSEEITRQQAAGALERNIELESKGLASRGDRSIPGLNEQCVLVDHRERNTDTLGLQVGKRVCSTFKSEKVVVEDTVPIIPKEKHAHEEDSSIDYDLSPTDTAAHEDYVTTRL

[10] = target: Induced myeloid leukemia cell differentiation protein Mcl-1 (Homo sapiens, UniProt Q07820); assay type: functional
Sequence of Induced myeloid leukemia cell differentiation protein Mcl-1 (Q07820 whole entry): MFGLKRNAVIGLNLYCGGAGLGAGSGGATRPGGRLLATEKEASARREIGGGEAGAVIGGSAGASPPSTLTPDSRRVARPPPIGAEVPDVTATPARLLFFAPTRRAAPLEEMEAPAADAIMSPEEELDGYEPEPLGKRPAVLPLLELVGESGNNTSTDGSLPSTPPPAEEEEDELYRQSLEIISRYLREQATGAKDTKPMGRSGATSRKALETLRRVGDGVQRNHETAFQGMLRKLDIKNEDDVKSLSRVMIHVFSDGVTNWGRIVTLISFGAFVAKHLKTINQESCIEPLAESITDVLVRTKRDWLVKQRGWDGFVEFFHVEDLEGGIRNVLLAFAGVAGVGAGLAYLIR

With `Cc1cc(C)c(-c2csc(NC(=O)CCCc3nc(O)c4ccccc4n3)n2)c(C)c1` as the compound, how does the AC50 [1] read?
The AC50 was 5.38 µM (active).

And the AC50 [2]?
Its AC50 is 2.97 µM (active).

What about the AC50 [3] of the same compound?
The AC50 was > 70 µM (inactive).

For `CN(Cc1nccn1C)C(=O)c1cc(COc2ccc3ncccc3c2)on1`, which AC50 [1] is on record?
Its AC50 is 36.8 µM (active).

And the AC50 [2]?
Its AC50 is 6.97 µM (active).

What about the AC50 [3] of the same compound?
The AC50 was > 70 µM (inactive).

Which results are given for `C=C1C(=O)OC2C=C(C)CC3C=C(CCC=C(C)CCC12)C(=O)O3` (stereo unspecified)?
GI50 (P388): 12.4 µM (inactive); GI50 (P388/ADR): 22.1 µM (inactive); GI50 (SN12K1): 58.3 µM (inactive)

With `CC1SC(C)C(=O)N(CC(=O)NCc2ccc(F)cc2)C1=O` (stereo unspecified) as the compound, how does the IC50 (Leucine aminopeptidase) read?
The IC50 was 31.4 µM (active).

What does the source list for `CC(C)(C)[S@@+]([O-])N1Cc2cc(C(=O)NCCc3ccncc3)nc(-c3cccc(-c4ccccc4)c3)c2[C@H]1CCO`?
AC50 [4]: 1.08 µM (active); AC50 [5]: 0.366 µM (active); AC50 [6]: 0.414 µM (active); AC50 [7]: 0.537 µM (active)

For `Nc1nc(SCc2nc(-c3ccccc3)no2)[nH]c(=O)c1-c1ccccc1`, which IC50 (Leucine aminopeptidase) is on record?
The IC50 was 7.2 µM (active).

For `CCOC(=O)Cc1csc(NC(=O)NC2(C(F)(F)F)Oc3cc(Cl)c(Cl)cc3O2)n1`, which IC50 (Leucine aminopeptidase) is on record?
The IC50 was 27.7 µM (active).

What about the EC50 [8] of the same compound?
Its EC50 is > 195 µM (not active).

For `Cc1onc(-c2ccccc2Cl)c1C(=O)N1CCN(C/C=C/c2ccccc2)CC1`, which EC50 [9] is on record?
The EC50 was 5.96 µM (active).

What does the source list for `CC1OC(CO)(n2cnc3c(N)ncnc32)C(O)C1O` (stereo unspecified)?
GI50 (P388): > 100 µM (inactive); GI50 (P388/ADR): > 100 µM (inactive); GI50 (SN12K1): > 100 µM (inactive)

With `Cc1csc(SC(C)C(=O)Nc2ccc(Cl)cn2)n1` (stereo unspecified) as the compound, how does the IC50 (Leucine aminopeptidase) read?
Its IC50 is 6.63 µM (active).

For `CC(C)CCCCCCCCCCCCC(=O)NCC(=O)NC1C(O)C(O)C(Nc2[nH]cnc3ncnc2-3)OC1C(O)CO` (stereo unspecified), which GI50 (P388) is on record?
Its GI50 is 0.000211 µM (active).

What about the GI50 (P388/ADR) of the same compound?
The GI50 was 0.00128 µM (active).

And the GI50 (SN12K1)?
Its GI50 is 0.00531 µM (active).

With `CCC(C)N1C(=O)/C(=C/c2ccc3c(c2)CCN3CCCCl)C(=O)NC1=S` (stereo unspecified) as the compound, how does the IC50 [10] read?
Its IC50 is 5.31 µM (active).
